The values below come from patent publication US20110224079A1, “SPIROHETEROCYCLIC N-OXYAMIDES AS PESTICIDES” (SYNGENTA CROP PROTECTION LLC, priority 2008, published 2011).

For one assay, the system named is Myzus persicae (green peach aphid). The experiment in a line: Example B1: activity against Myzus persicae, sprayed sunflower leaf discs (feeding/residual contact, preventive). Conditions: foliar, 144 h, read-out: activity (mortality).
With `CCOC(=O)OC1=C(c2c(C)cc(-c3ccc(Cl)cc3)cc2C)C(=O)N(OCOC)C12CCN(OC)CC2` [P1.20], the mortality – broadly, the percentage killed – at 400 ppm is above 80%. On the same count and under the same terms, next, `CCOC(=O)OC1=C(c2c(C)cc(C)cc2C)C(=O)N(OC2CCCCC2)C12CCN(OC)CC2` [P1.30]: above 80%; `CCOC(=O)OC1=C(c2cc(C)c(Cl)cc2C)C(=O)N(OCCOC)C12CCN(OC)CC2` [P1.33]: above 80%. On to `CCOC(=O)OC1=C(c2cc(C)c(Cl)cc2C)C(=O)N(OC)C12CCN(OC)CC2` [P1.34], for which the mortality at 400 ppm was above 80%.

`CCOC(=O)OC1=C(c2cc(C)c(C)cc2Cl)C(=O)N(OCCOC)C12CCN(OC)CC2` [P1.35]: the mortality at 400 ppm is above 80%. On the same count and under the same terms, next, `CCOC(=O)OC1=C(c2cc(C)c(C)cc2C)C(=O)N(OCCOC)C12CCN(OC)CC2` [P1.36]: above 80%. Consider `CCOC(=O)OC1=C(c2cc(C)c(C)cc2Cl)C(=O)N(OC)C12CCN(OC)CC2` [P1.39], for which the mortality at 400 ppm is above 80%.

Regarding `CCOC(=O)OC1=C(c2ccc(C)cc2C)C(=O)N(OCOC)C12CCN(OC)CC2` [P1.50], the mortality at 400 ppm was above 80%. In the case of `CCOC(=O)OC1=C(c2c(C)cc(C)cc2Br)C(=O)N(OC)C12CCN(OC)CC2` [P1.66], the mortality at 400 ppm is above 80%.

As to `CCOC(=O)OC1=C(c2c(C)cc(C)cc2Br)C(=O)N(OCCOC)C12CCN(OC)CC2` [P1.67], the mortality at 400 ppm was above 80%. As for `CCOC(=O)OC1=C(c2c(C)cc(C)cc2Br)C(=O)N(OCOC)C12CCN(OC)CC2` [P1.68], the mortality at 400 ppm was above 80%. `CCOC(=O)OC1=C(c2cc(C)c(Cl)cc2C)C(=O)N(OC2CCCO2)C12CCN(OC)CC2` (stereo not drawn) [P1.103]: the mortality at 400 ppm was above 80%. Take `COCCON1C(=O)C(c2cc(C)c(C)cc2C)=C(O)C12CCN(OC)CC2` [P2.37]: the mortality at 400 ppm is above 80%. The same measure, in the same setting: next, `COCON1C(=O)C(c2cc(Br)c(C)cc2C)=C(O)C12CCN(OC)CC2` [P2.74]: above 80%; `CON1CCC2(CC1)C(O)=C(c1cc(C)c(Cl)cc1C)C(=O)N2OC1CCCO1` (stereo not drawn) [P2.93]: above 80%.

The next assay shares this test system. The experiment in a line: Example B2: activity against Myzus persicae, pea seedling roots in test solution (systemic/feeding, curative). Conditions: 144 h, read-out: activity (mortality).
Regarding `CCOC(=O)OC1=C(c2cc(C)c(C)cc2Cl)C(=O)N(OCCOC)C12CCN(OC)CC2` [P1.35], the mortality at 400 ppm is above 80%. `CCOC(=O)OC1=C(c2c(Cl)ccc(C)c2F)C(=O)N(OC)C12CCN(OC)CC2` [P1.41]: the mortality at 400 ppm was above 80%. Still for that read-out and setting: with `CCOC(=O)OC1=C(c2c(Cl)ccc(C)c2F)C(=O)N(OCOC)C12CCN(OC)CC2` [P1.42] the figure was above 80%. On to `CCOC(=O)OC1=C(c2c(C)cc(C)c(C)c2C)C(=O)N(OCCOC)C12CCN(OC)CC2` [P1.46], for which the mortality at 400 ppm was above 80%. Still for that read-out and setting: with `CCOC(=O)OC1=C(c2ccc(C)cc2C)C(=O)N(OCOC)C12CCN(OC)CC2` [P1.50] the figure was above 80%; with `CCOC(=O)OC1=C(c2cc(C)c(C)cc2Br)C(=O)N(OCOC)C12CCN(OC)CC2` [P1.52], above 80%; with `CCOC(=O)OC1=C(c2cc(C)c(C)cc2Cl)C(=O)N(OC2CCCO2)C12CCN(OC)CC2` (stereo not drawn) [P1.64], above 80%. Same read-out and setting: with `CCOC(=O)OC1=C(c2c(C)cc(C)cc2Br)C(=O)N(OC)C12CCN(OC)CC2` [P1.66] the figure was above 80%; with `CCOC(=O)OC1=C(c2c(C)cc(C)cc2Br)C(=O)N(OCCOC)C12CCN(OC)CC2` [P1.67], above 80%; with `CCOC(=O)OC1=C(c2c(C)cc(C)cc2Br)C(=O)N(OCOC)C12CCN(OC)CC2` [P1.68], above 80%. Regarding `CCOC(=O)OC1=C(c2c(F)ccc(C)c2Cl)C(=O)N(OC2CCCO2)C12CCN(OC)CC2` (stereo not drawn) [P1.102], the mortality at 400 ppm was above 80%. Still for that read-out and setting: next, `COCON1C(=O)C(c2cc(C)c(Cl)cc2C)=C(O)C12CCN(OC)CC2` [P2.27]: above 80%; `COCCON1C(=O)C(c2cc(C)c(C)cc2Cl)=C(O)C12CCN(OC)CC2` [P2.32]: above 80%.

As to `CON1CCC2(CC1)C(O)=C(c1c(Cl)ccc(C)c1F)C(=O)N2OC1CCCO1` (stereo not drawn) [P2.44], the mortality at 400 ppm was above 80%. `COCON1C(=O)C(c2c(Cl)ccc(C)c2F)=C(O)C12CCN(OC)CC2` [P2.46]: the mortality at 400 ppm is above 80%. Same read-out and setting: next, `CON1CCC2(CC1)C(O)=C(c1c(C)cc(C)c(C)c1C)C(=O)N2OC` [P2.49]: above 80%; `COCCON1C(=O)C(c2cc(C)c(C)cc2Br)=C(O)C12CCN(OC)CC2` [P2.53]: above 80%.

In the case of `COCCON1C(=O)C(c2c(F)ccc(C)c2Cl)=C(O)C12CCN(OC)CC2` [P2.59], the mortality at 400 ppm was above 80%.
